{"source": "ChEMBL document CHEMBL1201862", "about": "“PubChem BioAssay data set” (2004)", "assay_in_all_cases": "NCI-60 cell line screen, 48 h", "key": {"NCI-H23": {"system": "NCI-H23"}, "LXFL 529": {"system": "LXFL 529"}, "KM-20L2": {"system": "KM-20L2"}, "RXF 393": {"system": "RXF 393"}, "MDA-MB-231": {"system": "MDA-MB-231"}, "SNB-19": {"system": "SNB-19"}, "U-251": {"system": "U-251"}, "SNB-75": {"system": "SNB-75"}, "SR": {"system": "SR"}, "SK-MEL-2": {"system": "SK-MEL-2"}, "OVCAR-8": {"system": "OVCAR-8"}, "MDA-N": {"system": "MDA-N"}, "HL-60": {"system": "HL-60"}, "Malme-3M": {"system": "Malme-3M"}, "SW-620": {"system": "SW-620"}, "MCF7": {"system": "MCF7"}, "K562": {"system": "K562"}, "OVCAR-5": {"system": "OVCAR-5"}, "NCI/ADR-RES": {"system": "NCI/ADR-RES"}, "A498": {"system": "A498"}, "HOP-62": {"system": "HOP-62"}, "LOX IMVI": {"system": "LOX IMVI"}, "CCRF-CEM": {"system": "CCRF-CEM"}, "DLD-1": {"system": "DLD-1"}, "NCI-H522": {"system": "NCI-H522"}, "786-0": {"system": "786-0"}, "ACHN": {"system": "ACHN"}, "UACC-257": {"system": "UACC-257"}, "DMS-114": {"system": "DMS-114"}, "OVCAR-4": {"system": "OVCAR-4"}, "SNB-78": {"system": "SNB-78"}, "UO-31": {"system": "UO-31"}, "HOP-18": {"system": "HOP-18"}, "CAKI-1": {"system": "CAKI-1"}, "XF498": {"system": "XF498"}, "SK-MEL-28": {"system": "SK-MEL-28"}, "IGROV-1": {"system": "IGROV-1"}, "SF-539": {"system": "SF-539"}, "KM12": {"system": "KM12"}, "HCT-116": {"system": "HCT-116"}, "HOP-92": {"system": "HOP-92"}, "TK-10": {"system": "TK-10"}, "COLO 205": {"system": "COLO 205"}, "HCT-15": {"system": "HCT-15"}, "SK-MEL-5": {"system": "SK-MEL-5"}, "HCC 2998": {"system": "HCC 2998"}, "RPMI-8226": {"system": "RPMI-8226"}, "HT-29": {"system": "HT-29"}, "T47D": {"system": "T47D"}, "NCI-H226": {"system": "NCI-H226"}, "M14": {"system": "M14"}, "PC-3": {"system": "PC-3"}, "MDA-MB-435": {"system": "MDA-MB-435"}, "SF-268": {"system": "SF-268"}, "SF-295": {"system": "SF-295"}, "BT-549": {"system": "BT-549"}, "M19-MEL": {"system": "M19-MEL"}, "SK-OV-3": {"system": "SK-OV-3"}, "MOLT-4": {"system": "MOLT-4"}, "A549": {"system": "A549"}, "SN12C": {"system": "SN12C"}, "DMS-273": {"system": "DMS-273"}, "DU-145": {"system": "DU-145"}, "OVCAR-3": {"system": "OVCAR-3"}, "UACC-62": {"system": "UACC-62"}, "EKVX": {"system": "EKVX"}, "NCI-H460": {"system": "NCI-H460"}}, "note": "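Method: 48-hour compound exposure of cells in 96-well plates, five concentrations, linear interpolation of endpoints. GI50: concentration for 50% inhibition of growth.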 The source made the active and inactive calls. No stated cut-off is given here; in the data, active = GI50 up to about 1.1 µM and inactive = higher."}
{"smiles": "C=C1CC2CC[C@@]34C[C@H]5O[C@@H]6C(O[C@H]7CC[C@H](CC(=O)OC8[C@H](C)C9OC%10C[C@]%11(C[C@@H]%12O[C@]%13(C[C@H](C)[C@@H]%14O[C@H]([C@H](O)C[C@H](O)CO)C[C@@H]%14O%13)C[C@H](C)[C@@H]%12O%11)OC%10CC9O[C@H]8C[C@H]8O[C@H](CC[C@@H]1O2)C[C@@H](C)C8=C)O[C@H]7[C@@H]6O3)[C@@H]5O4", "note": "(some centres not stated)", "values": [{"measurement": "GI50", "setting": "NCI-H23", "value": "0.605 nM (active)"}, {"measurement": "GI50", "setting": "LXFL 529", "value": "1.29 nM (active)"}, {"measurement": "GI50", "setting": "KM-20L2", "value": "0.395 nM (active)"}, {"measurement": "GI50", "setting": "RXF 393", "value": "0.674 nM (active)"}, {"measurement": "GI50", "setting": "MDA-MB-231", "value": "0.728 nM (active)"}, {"measurement": "GI50", "setting": "SNB-19", "value": "1.91 nM (active)"}, {"measurement": "GI50", "setting": "U-251", "value": "0.899 nM (active)"}, {"measurement": "GI50", "setting": "SNB-75", "value": "0.321 nM (active)"}, {"measurement": "GI50", "setting": "SR", "value": "0.498 nM (active)"}, {"measurement": "GI50", "setting": "SK-MEL-2", "value": "1.49 nM (active)"}, {"measurement": "GI50", "setting": "OVCAR-8", "value": "2.22 nM (active)"}, {"measurement": "GI50", "setting": "MDA-N", "value": "0.1 nM (active)"}, {"measurement": "GI50", "setting": "HL-60", "value": "0.237 nM (active)"}, {"measurement": "GI50", "setting": "Malme-3M", "value": "1.31 nM (active)"}, {"measurement": "GI50", "setting": "SW-620", "value": "0.482 nM (active)"}, {"measurement": "GI50", "setting": "MCF7", "value": "0.255 nM (active)"}, {"measurement": "GI50", "setting": "K562", "value": "0.484 nM (active)"}, {"measurement": "GI50", "setting": "OVCAR-5", "value": "8.45 nM (active)"}, {"measurement": "GI50", "setting": "NCI/ADR-RES", "value": "0.516 nM (active)"}, {"measurement": "GI50", "setting": "A498", "value": "1.08 nM (active)"}, {"measurement": "GI50", "setting": "HOP-62", "value": "1.31 nM (active)"}, {"measurement": "GI50", "setting": "LOX IMVI", "value": "0.597 nM (active)"}, {"measurement": "GI50", "setting": "CCRF-CEM", "value": "0.588 nM (active)"}, {"measurement": "GI50", "setting": "DLD-1", "value": "1.8 nM (active)"}, {"measurement": "GI50", "setting": "NCI-H522", "value": "0.211 nM (active)"}, {"measurement": "GI50", "setting": "786-0", "value": "2.46 nM (active)"}, {"measurement": "GI50", "setting": "ACHN", "value": "4.11 nM (active)"}, {"measurement": "GI50", "setting": "UACC-257", "value": "0.8 nM (active)"}, {"measurement": "GI50", "setting": "DMS-114", "value": "0.37 nM (active)"}, {"measurement": "GI50", "setting": "OVCAR-4", "value": "5.05 nM (active)"}, {"measurement": "GI50", "setting": "SNB-78", "value": "2.61 nM (active)"}, {"measurement": "GI50", "setting": "UO-31", "value": "5.39 nM (active)"}, {"measurement": "GI50", "setting": "HOP-18", "value": "< 10 nM (active)"}, {"measurement": "GI50", "setting": "CAKI-1", "value": "0.491 nM (active)"}, {"measurement": "GI50", "setting": "XF498", "value": "1.23 nM (active)"}, {"measurement": "GI50", "setting": "SK-MEL-28", "value": "2.19 nM (active)"}, {"measurement": "GI50", "setting": "IGROV-1", "value": "2.18 nM (active)"}, {"measurement": "GI50", "setting": "SF-539", "value": "0.676 nM (active)"}, {"measurement": "GI50", "setting": "KM12", "value": "0.46 nM (active)"}, {"measurement": "GI50", "setting": "HCT-116", "value": "0.513 nM (active)"}, {"measurement": "GI50", "setting": "HOP-92", "value": "1.66 nM (active)"}, {"measurement": "GI50", "setting": "TK-10", "value": "6.81 nM (active)"}, {"measurement": "GI50", "setting": "COLO 205", "value": "0.492 nM (active)"}, {"measurement": "GI50", "setting": "HCT-15", "value": 0.935, "unit": "nM"}, {"measurement": "GI50", "setting": "SK-MEL-5", "value": "0.24 nM (active)"}, {"measurement": "GI50", "setting": "HCC 2998", "value": "2.01 nM (active)"}, {"measurement": "GI50", "setting": "RPMI-8226", "value": "0.255 nM (active)"}, {"measurement": "GI50", "setting": "HT-29", "value": "0.372 nM (active)"}, {"measurement": "GI50", "setting": "T47D", "value": "2.65 µM (inactive)"}, {"measurement": "GI50", "setting": "NCI-H226", "value": "2.31 nM (active)"}, {"measurement": "GI50", "setting": "M14", "value": "1.43 nM (active)"}, {"measurement": "GI50", "setting": "PC-3", "value": "0.106 nM (active)"}, {"measurement": "GI50", "setting": "MDA-MB-435", "value": "0.1 nM (active)"}, {"measurement": "GI50", "setting": "SF-268", "value": "3.76 nM (active)"}, {"measurement": "GI50", "setting": "SF-295", "value": "0.46 nM (active)"}, {"measurement": "GI50", "setting": "BT-549", "value": "1.31 µM (inactive)"}, {"measurement": "GI50", "setting": "M19-MEL", "value": "0.618 nM (active)"}, {"measurement": "GI50", "setting": "SK-OV-3", "value": "2.21 nM (active)"}, {"measurement": "GI50", "setting": "MOLT-4", "value": "0.752 nM (active)"}, {"measurement": "GI50", "setting": "A549", "value": "1.47 nM (active)"}, {"measurement": "GI50", "setting": "SN12C", "value": "4.05 nM (active)"}, {"measurement": "GI50", "setting": "DMS-273", "value": "0.538 nM (active)"}, {"measurement": "GI50", "setting": "DU-145", "value": "0.113 nM (active)"}, {"measurement": "GI50", "setting": "OVCAR-3", "value": "0.303 nM (active)"}, {"measurement": "GI50", "setting": "UACC-62", "value": "0.469 nM (active)"}, {"measurement": "GI50", "setting": "EKVX", "value": "0.141 nM (active)"}, {"measurement": "GI50", "setting": "NCI-H460", "value": "0.859 nM (active)"}]}
